Columns and labels:
5×FAD mice [1] = assay: Survival of mice under daily MK0677 i.p. injection; format: in vivo, mouse; conditions: 30 days
Procedure: To determine whether MK0677 mitigates hippocampal lesions in 5×FAD mice, the inventor first sought to determine the optimal dose of MK0677. 5×FAD mice at 3 months old received either saline or MK0677 at 1.5 or 3 mg/kg via daily i.p. injection for 30 days (FIGS. 12a). 5×FAD mice at 3 months old have little to no hippocampal lesions and indiscernible behavioral change, both of which become prominent at 4 months of age (the endpoint of treatment). The doses of MK0677 were chosen based on previous studies. […] The inventor therefore selected 5×FAD mice that received the 1.5 mg/kg dose of MK0677 for biological response assays. Next, he examined the impact of MK0677 treatment on hippocampal Aβ deposition in 5×FAD mice. To this end, immunofluorescent staining using the specific antibody against Aβ was performed to visualize Aβ plaques.
Mice and agonist treatment.

Aβ/Ghsr1α complex = target: T1, Aβ/Ghsr1α complex (Mus musculus, UniProt Q99P50); assay: Duolink PLA of Aβ/Ghsr1α complex in cultured hippocampal neurons; format: cell-based; conditions: oligomeric Aβ42 1 μM, 24 hours; 1.5 μM MK0677, 2 μM SKF81297, or in combination
T1 construct: endogenous in cells; host or cells: primary mouse hippocampal neurons; Aβ42 peptide purchased (GenicBio, A-43-T-1000)
Source text: Duolink In Situ Proximity Ligation Assay (PLA). […] PLA analysis was referred to previous report (66 67). NIH Image J was used for PLA signal quantification.
Agonist treatment on primary cultured neurons. […] The exposure was followed by immunostaining to examine the effects of Ghsr1α/Drd1 co-activation on Aβ induced synaptic loss or Ghsr1α/Drd1, Aβ/Ghsr1α interaction as described in previous sections.

Ghsr1α = target: T2, Ghsr1α (Mus musculus, UniProt Q99P50, INS247CCPGCC); assay: FlAsH-based FRET assay of Ghsr1α activity in HEK 293T cells; format: cell-based; conditions: 50 μM; Ghsr1α FlAsH/ECFP-expressing HEK 293T cells
T2 construct: Mouse full length Ghsr1α cDNA (NCBI Gene ID: 208188) was purchased from OriGene (MR226073); expressed in transfected cells; host or cells: HEK 293T
Source text: FlAsH-based FRET was created by structural dynamics of Ghsr1α with FlAsH in the intercellular loop 3 and enhanced cyan fluorescent protein (ECFP) in the C-terminus (Ghsr1α^FlAsH/ECFP).
FlAsH-based FRET. […] The CCPGCC motif which has higher binding affinity for FlAsH was inserted in the third intracellular loop between Va1247 and Gly248 of Ghsr1α cDNA or between Thr245 and Gly246 of Drd1 cDNA. […] Fluorescence signals were monitored on microplate reader (BioTek Cytation 5) before and after the treatments. […] Area scanning read mode was used to correct artificial inaccuracies. The FRET ratio (FFlAsH/FECFP) was calculated according to equation as previously reported (69):
The terms a and b are correction factors for the two leakages mentioned above. a is the ratio of the direct emission of donor, ECFP at 535 nm, to its emission at 475 nm when excited at 425 nm which was calculated with cells transfected with pcDNA3-Ghsr1α^FlAsH/ECFP or pcDNA3-Drd1^FlAsH/ECFP only. b is the ratio of the direct emission of FlAsH at 535 nm when excited at 425 nm to its emission at 535 nm when excited at 500 nm which was calculated with FlAsH labeled untransfected cells.

5×FAD mice [2] = assay: Neurogenesis (DCX staining) in the dentate gyrus; format: in vivo, mouse; conditions: MK0677 1.5 mg/kg, daily i.p., one month
Procedure: Immunocytochemistry. […] NIS element software was used for image analysis. “Objective Count” dialog was used for intensity measurement. […] The overlapped dots represent synapses.
Neurogenesis analysis. Neurogenesis in the hippocampal dentate gyms (DG) area was presented by performing doublecortin (DCX) staining in fixed brain slices as previously described. DCX-positive (DCX^+) cell number was counted manually. The DG area was measured using NIS element software. DCX cell density was calculated by dividing the DCX cell number by the DG area to evaluate neurogenesis.

T2 sequence (Q99P50 with tags, fused parts or gaps INS247CCPGCC): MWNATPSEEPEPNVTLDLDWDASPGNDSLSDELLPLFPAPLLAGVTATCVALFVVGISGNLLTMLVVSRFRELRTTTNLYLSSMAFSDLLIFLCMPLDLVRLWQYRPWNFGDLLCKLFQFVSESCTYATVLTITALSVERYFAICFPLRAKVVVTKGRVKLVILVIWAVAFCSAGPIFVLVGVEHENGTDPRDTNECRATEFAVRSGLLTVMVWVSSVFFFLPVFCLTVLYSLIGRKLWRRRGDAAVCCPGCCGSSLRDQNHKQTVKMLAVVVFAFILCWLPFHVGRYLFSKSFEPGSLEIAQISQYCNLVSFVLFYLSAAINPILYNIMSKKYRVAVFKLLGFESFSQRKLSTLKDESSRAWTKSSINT
T1 sequence (Q99P50 whole entry): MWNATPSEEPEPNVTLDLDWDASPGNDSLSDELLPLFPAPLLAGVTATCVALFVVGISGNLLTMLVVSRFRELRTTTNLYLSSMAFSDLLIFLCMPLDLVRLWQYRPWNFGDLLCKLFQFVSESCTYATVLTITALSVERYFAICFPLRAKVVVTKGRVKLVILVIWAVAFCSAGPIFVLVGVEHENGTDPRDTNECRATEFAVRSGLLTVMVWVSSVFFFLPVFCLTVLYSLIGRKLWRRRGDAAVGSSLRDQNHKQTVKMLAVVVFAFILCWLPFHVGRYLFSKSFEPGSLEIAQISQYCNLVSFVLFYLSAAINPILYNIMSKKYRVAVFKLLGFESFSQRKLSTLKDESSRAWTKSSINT
T1 sequence (Q61616 whole entry, further chain): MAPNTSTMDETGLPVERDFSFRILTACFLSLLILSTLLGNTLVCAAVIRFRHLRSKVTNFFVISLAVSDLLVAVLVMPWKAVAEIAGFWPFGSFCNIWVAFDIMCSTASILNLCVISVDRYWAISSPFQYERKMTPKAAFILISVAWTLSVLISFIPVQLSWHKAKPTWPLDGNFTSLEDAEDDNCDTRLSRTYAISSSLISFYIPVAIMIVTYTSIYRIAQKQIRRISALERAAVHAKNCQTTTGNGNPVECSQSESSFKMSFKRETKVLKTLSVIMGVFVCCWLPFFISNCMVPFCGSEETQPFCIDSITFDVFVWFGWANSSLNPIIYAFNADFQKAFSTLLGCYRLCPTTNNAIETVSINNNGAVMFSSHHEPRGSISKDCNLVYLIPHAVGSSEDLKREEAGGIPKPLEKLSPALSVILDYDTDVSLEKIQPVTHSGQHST

## CC(C)(N)C(=O)N[C@H](COCc1ccccc1)C(=O)N1CCC2(CC1)CN(S(C)(=O)=O)c1ccccc12 [MK0677]
5×FAD mice [1]; MK0677 1.5 mg/kg
  5×FAD mouse survival vs saline: little effect
5×FAD mice [1]; MK0677 3 mg/kg
  mortality of 5×FAD mice: significantly increased the mortality
Aβ/Ghsr1α complex
  Aβ/Ghsr1α complex formation: not MK0677 or SKF81297 alone
Ghsr1α
  FRET ratio (FFlAsH/FECFP), agonist-induced Ghsr1α activation: induced a decrease in FRET ratio
5×FAD mice [2]
  DCX+ cells, non-TG saline vs non-TG MK0677: no significant difference
  DCX-positive cells in dentate gyri, 5×FAD mice: remarkably augmented number of DCX-positive cells
  DCX-positive cells, Ghsr null mice: no response
